From patent US8022055B2, “Betulinic acid derivatives” (Dabur Pharma Limited, priority 2005, dated 2011)

Legend:
NIH 3T3 cells = assay: NIH3T3 cytotoxicity test (72 h MTT assay); assay type: cell-based; conditions: NIH3T3, 72 hours
How it was run: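 Mouse NIH 3T3 fibroblasts exposed to a concentration range of compound for 72 hours; viable cells measured by MTT and growth inhibition calculated against untreated cultures. IC50 expressed in μg/ml; safety index is the NIH 3T3 IC50 divided by tumour-cell IC50.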

PA1 = assay: three day MTT cytotoxicity assay, PA1; assay type: cell-based, human; conditions: PA1, 72 hours
Description: (§1) Briefly, a three day MTT cytotoxicity assay was performed, which is based on the principle of uptake of MTT (3-(4,5-dimethylthiazol-2-yl)-2,5-diphenyl tetrazolium bromide), a tetrazolium salt, by the metabolically active cells where it is metabolized by active mitochondria into a blue colored formazan product that is read spectrophotometrically. MIT was dissolved in phosphate buffered saline with a pH of 7.4 to obtain an MIT concentration of 5 mg/ml; the resulting mixture was filtered through a 0.22-micron filter to sterilize and remove a small amount of insoluble residue. For each type of tumor cell, 10,000 to 15,000 cells were seeded in a 96-well culture plate and incubated with the individual betulinic acid derivatives in a CO2 incubator for a total of 72 hours. Control cells not treated with the betulinic acid derivatives were similarly incubated. The assay was terminated by adding 100 μg (20 μl) of MIT to each well then incubating for additional one hour, and finally adding 50 μl of 10% SDS-0.01N HCl to each well to lyse the cells and dissolve formazan. After incubating for one hour, the plate was read spectrophotometrically at 540 nm and the percentage of cytotoxicity calculated using the following formula: Cytotoxicity percentage=100×[1−(X/R1)], where X=(absorbance of treated sample at 540 nm)−(absorbance of blank at 540 nm) R1=absorbance of control sample at 540 nm. The IC50 Values of the cytotoxicity defined as the concentration at which 50% of the cells are killed in vitro was calculated for each cell line treated with each of the betulinic acid derivatives.

DU145 = assay: three day MTT cytotoxicity assay, DU145; assay type: cell-based, human; conditions: DU145, 72 hours
Description: (§2) A number of compounds listed in Table-3 were tested for cytotoxicity against prostate, lung, laryngeal, pancreas, breast, colon and ovarian cancer, leukemia and lymphoma, human tumor cell lines. Briefly, a three day MTT cytotoxicity assay was performed, which is based on the principle of uptake of MTT (3-(4,5-dimethylthiazol-2-yl)-2,5-diphenyl tetrazolium bromide), a tetrazolium salt, by the metabolically active cells where it is metabolized by active mitochondria into a blue colored formazan product that is read spectrophotometrically. MIT was dissolved in phosphate buffered saline with a pH of 7.4 to obtain an MIT concentration of 5 mg/ml; the resulting mixture was filtered through a 0.22-micron filter to sterilize and remove a small amount of insoluble residue. For each type of tumor cell, 10,000 to 15,000 cells were seeded in a 96-well culture plate and incubated with the individual betulinic acid derivatives in a CO2 incubator for a total of 72 hours. Control cells not treated with the betulinic acid derivatives were similarly incubated. The assay was terminated by adding 100 μg (20 μl) of MIT to each well then incubating for additional one hour, and finally adding 50 μl of 10% SDS-0.01N HCl to each well to lyse the cells and dissolve formazan. After incubating for one hour, the plate was read spectrophotometrically at 540 nm and the percentage of cytotoxicity calculated using the following formula: Cytotoxicity percentage=100×[1−(X/R1)], where X=(absorbance of treated sample at 540 nm)−(absorbance of blank at 540 nm) R1=absorbance of control sample at 540 nm. The IC50 Values of the cytotoxicity defined as the concentration at which 50% of the cells are killed in vitro was calculated for each cell line treated with each of the betulinic acid derivatives.

SW620 = assay: three day MTT cytotoxicity assay, SW620; assay type: cell-based, human; conditions: SW620, 72 hours
Description: as §1

HBL100 = assay: three day MTT cytotoxicity assay, HBL100; assay type: cell-based, human
Description: as §2

Miapaca = assay: three day MTT cytotoxicity assay, Miapaca; assay type: cell-based, human
A549 = assay: three day MTT cytotoxicity assay, A549; assay type: cell-based, human
Description: as §2

K562 = assay: three day MTT cytotoxicity assay, K562; assay type: cell-based, human
Description: as §2

[1] = Pharmacokinetic study after intravenous injection; conditions: rat, 10 mg/kg intravenous
Description: Blood samples were taken at various times after administration and plasma was prepared and frozen at −20° C. until analysis. The plasma sample were analyzed by a suitable HPLC method using a C-18 column. The pH of water is adjusted to 3.0 with phosphoric acid. Start the gradient with 70% acetonitrile for 5 minutes and increase the concentration up to 100% within 25 minutes followed by hold at 100% for 10 minutes. It is thus possible to construct the curve showing the plasma concentration as a function of time and to determine different pharmacokinetic parameter of compound studied.

[2] = tested on: various cancer cell lines; assay: in vitro cytotoxicity / anticancer activity, overall statement

elimination (Kel) as compared to betulinic acid [1]: slower elimination
plasma concentrations as compared to betulinic acid (II) [1]: quite high and long lasting
systemic exposure (AUC0-∞) as compared to betulinic acid [1]: better systemic exposure
AUC(0-e) ([1]; plasma): 78400 ng·h/mL
C0 ([1]; plasma): 132.2 µg/mL
T1/2 ([1]; plasma): 6.7 h
Vd ([1]; plasma): 0.23 mL
SMILES: C=C(C)[C@@H]1CC[C@]2(C(=O)O)CC[C@]3(C)C(CCC4[C@@]5(C)Cc6c([nH]c7ccc(Cl)cc67)C(C)(C)C5CC[C@]43C)C12 (stereo partly drawn) [Compound 5, 5′-Chloro-2,3-didehydroindolo[2′,′:2,3]betulinic acid]
IC50 for cell lines NIH3T3 (NIH 3T3 cells): 4.6 ± 0.14 µg/mL
IC50 for cell lines PA1 (PA1): 2.5 µg/mL
IC50 for cell lines DU145 (DU145): 4.9 µg/mL
IC50 for cell lines SW620 (SW620): 2.7 µg/mL
IC50 for cell lines HBL100 (HBL100; HBL100, 72 hours, MTT): 11.75 ± 1.65 µg/mL
Specific Index (SI) for cell lines HBL100 (HBL100; ratio of IC50 of NIH 3T3 cells to HBL100): 0.391
IC50 for cell lines Miapaca (Miapaca; Miapaca, 72 hours, MTT): 2.44 ± 0.26 µg/mL
Specific Index (SI) for cell lines Miapaca (Miapaca; ratio of IC50 of NIH 3T3 cells to Miapaca): 1.885
IC50 for cell lines A549 (A549; A549, 72 hours, MTT): 7.14 ± 0.5 µg/mL
Specific Index (SI) for cell lines A549 (A549; ratio of IC50 of NIH 3T3 cells to A549): 0.644
IC50 for cell lines K562 (K562; K562, 72 hours, MTT): 9.61 ± 0.78 µg/mL
Specific Index (SI) for cell lines K562 (K562; ratio of IC50 of NIH 3T3 cells to K562): 0.478
pharmacokinetic properties (in words) [1]: significantly superior pharmacokinetic properties over betulinic acid
in vitro cytotoxicity / anticancer activity (in words) [2]: significantly improved anticancer activity over betulinic acid
